The format of data set [1] is physicochemical. Here is the method: In Vitro Degradation Studies
A solution containing thioamide derivative of fipronil (“TD-fipronil”) in a solution of CH3CN/H2O (50:50 v/v) and the solution was subjected to the following degradation agents: an acid (0.5 N HCl); a base (0.5 N NaOH); fluorescent light; heat (65° C.); an oxidizer (5% H2O2); and UV light. The identity of fipronil formed was confirmed via HPLC with UV detection and HPLC with diode array detection.

Details of data set [2]: species or system dogs. The settings on record: dog, po, 10 mg/kg. The method, then: In Vivo Degradation Study—Oral Administration
An oral formulation (solution) comprising 100 mg/ml of thioamide derivatives of fipronil dissolved in 60:40 propylene glycol: glycerol formal was orally administered to dogs at a dosage rate of 10 mg/kg and the concentration of fipronil in blood plasma measured at 6 hours, day 1, day 2, and day 7 and is presented below

The source of these data is patent US20080003282A1, “Antiparasitical agents and methods for treating, preventing and controlling external parasites in animals” (priority 2005, published 2008).

Molecules are shown by their SMILES. Read-outs that look alike come from different tables or passages of the source.

For `NC(=S)c1nn(-c2c(Cl)cc(C(F)(F)F)cc2Cl)c(N)c1[S+]([O-])C(F)(F)F` (stereo not shown) [TD-fipronil], the degradation product formed result in data set [1] is “fipronil sulfone”. In data set [1], the “stability in acid” value is “stable in acid”. The fipronil formed entry in data set [1] (Acid (0.5 N HCl), 4 days) is on record as “being degraded in 4 days; negligible amounts”; in data set [1] (Base (0.5 N NaOH)), “no fipronil was formed”; in data set [1] (Oxidation (5% H2O2)), “no fipronil was formed”. Besides, in data set [1] (UV light), the “sensitivity to light” value is on record as “very sensitive to light”. In addition, in data set [2], the “in vivo degradation into fipronil judged against efficacy” value was “degrades into fipronil in vivo in amounts that are sufficient for efficacy against fleas and ticks”.
